Experimental data published in ChEMBL document CHEMBL5352419, “Design, synthesis, and biological evaluation of tetrahydroquinoline amphiphiles as membrane-targeting antimicrobials against pathogenic bacteria and fungi” (Eur J Med Chem, 2022).
Active and inactive are the calls of the source. No cut-off for these calls is given here.

Columns and labels:
Pseudomonas aeruginosa = assay: In vivo antibacterial activity against Pseudomonas aeruginosa ATCC9027 infected in keratitis C57BL/6 mouse model assessed as log reduction in bacterial load at 0.5 % administered topically 4 times per day for 3 days; type: functional; details: time 3 day
Escherichia coli [1] = assay: Antimicrobial activity against Escherichia coli ATCC25922 assessed as bacterial growth inhibition incubated for 24 hrs in presence of 175.5 ug/mL K+ by Muller Hinton broth based dilution assay; type: functional
Escherichia coli [2] = assay: Antibiofilm activity against Escherichia coli ATCC25922 assessed as inhibition of biofilm formation at 3.125 ug/mL incubated for 24 hrs by crystal violet staining based analysis relative to control; type: functional
Candida albicans [3] = assay: Antimicrobial activity against Candida albicans CMCC98001 assessed as fungal growth inhibition incubated for 48 hrs in presence of 24.3 ug/mL […] by Sabouraud Dextrose broth based dilution assay; type: functional
Candida albicans [4] = assay: Antimicrobial activity against Candida albicans ATCC10231 assessed as fungal killing at 8 times of MIC measured at 1 hr by time-kill kinetics assay; type: functional, organism-based
Staphylococcus aureus [5] = assay: Antimicrobial activity against methicillin-resistant Staphylococcus aureus NCTC10442 assessed as bacterial growth inhibition incubated for 24 hrs in presence of 100 ug/mL Ca2+ by Muller Hinton broth based dilution assay; type: functional
Candida albicans [6] = assay: Antimicrobial activity against Candida albicans CMCC98001 assessed as fungal growth inhibition incubated for 48 hrs in presence of 3220 ug/mL Na+ by Sabouraud Dextrose broth based dilution assay; type: functional
[7] = Cytotoxicity against mouse NCTC clone 929 cells assessed as viable cells at 6.25 ug/mL incubated for 24 hrs by CCK-8 assay relative to control; type: toxicity, cell-based; details: NCTC clone 929 (L929) cells, at 6.25 µg/mL, read-out: Activity
Staphylococcus aureus [8] = assay: Antimicrobial activity against Staphylococcus aureus ATCC29213 assessed as log reduction in microbial load at 4 times of MIC measured at 1 hr by time-kill kinetics assay; type: functional
Escherichia coli [9] = assay: Antimicrobial activity against Escherichia coli ATCC25922 assessed as log reduction in microbial load at 4 times of MIC measured at 1 hr by time-kill kinetics assay; type: functional
[10] = Cytotoxicity against mouse NCTC clone 929 cells assessed as viable cells at 12.5 ug/mL incubated for 24 hrs by CCK-8 assay relative to control; type: toxicity, cell-based; details: NCTC clone 929 (L929) cells, at 12.5 µg/mL, read-out: Activity
Staphylococcus aureus [11] = assay: In vivo antibacterial activity against Staphylococcus aureus ATCC29213 infected in cyclophosphamide immunosuppressed keratitis C57BL/6 mouse model assessed as log reduction in bacterial load at 0.5 % administered topically 4 times per day for 3 days; type: functional; details: time 3 day
Staphylococcus aureus [12] = assay: Antimicrobial activity against Staphylococcus aureus ATCC29213 assessed as bacterial growth inhibition incubated for 24 hrs in presence of 175.5 ug/mL K+ by Muller Hinton broth based dilution assay; type: functional
Cell membrane = assay: Disruption of membrane integrity in Staphylococcus aureus ATCC29213 assessed as red fluorescence at 8 times of MIC incubated for 2 hrs under dark condition by SYTO 9 and PI staining based laser confocal microscopy analysis
[13] = Cytotoxicity against mouse J774.A1 cells assessed as viable cells at 3.125 ug/mL incubated for 24 hrs by CCK-8 assay relative to control; type: toxicity, cell-based; details: at 3.125 µg/mL, read-out: Activity
Staphylococcus aureus [14] = assay: Antimicrobial activity against methicillin-resistant Staphylococcus aureus NCTC10442 assessed as bacterial growth inhibition incubated for 24 hrs in presence of 175.5 ug/mL K+ by Muller Hinton broth based dilution assay; type: functional
Candida albicans [15] = assay: Antimicrobial activity against Candida albicans CMCC98001 assessed as fungal growth inhibition incubated for 48 hrs in presence of 100 ug/mL Ca2+ by Sabouraud Dextrose broth based dilution assay; type: functional
[16] = Cytotoxicity against mouse NCTC clone 929 cells assessed as viable cells at 25 ug/mL incubated for 24 hrs by CCK-8 assay relative to control; type: toxicity, cell-based; details: NCTC clone 929 (L929) cells, at 25 µg/mL, read-out: Activity
Candida albicans [17] = assay: Antimicrobial activity against Candida albicans ATCC10231 assessed as fungal growth inhibition incubated for 48 hrs in presence of 24.3 ug/mL Mg2+ by Sabouraud Dextrose broth based dilution assay; type: functional
[18] = Cytotoxicity against mouse J774.A1 cells assessed as viable cells at 50 ug/mL incubated for 24 hrs by CCK-8 assay relative to control; type: toxicity, cell-based; details: at 50 µg/mL, read-out: Activity
Candida albicans [19] = assay: Antimicrobial activity against Candida albicans ATCC10231 assessed as fungal killing at 4 times of MIC measured at 0.5 hr by time-kill kinetics assay; type: functional, organism-based
Candida albicans [20] = assay: Antimicrobial activity against Candida albicans ATCC10231 assessed as fungal killing at 8 times of MIC measured at 0.5 hr by time-kill kinetics assay; type: functional, organism-based

With `CC(C)=CCN1CCCc2cc(OCCCCCCCCNC(=N)N)ccc21` the “log(activity)” value (Pseudomonas aeruginosa) was 3.4, the MIC (Escherichia coli [1]) was 3.12 µg/mL and the inhibition at 3.125 µg/mL (Escherichia coli [2]) was 92.8%. For the same compound, the MIC (Candida albicans [3]) was 0.78 µg/mL, the Activity (Candida albicans [4]) was “Active” and the MIC (Staphylococcus aureus [5]) was 0.78 µg/mL. For the same compound, the MIC (Candida albicans [6]) was 0.78 µg/mL, the viability at 24 h, 6.25 ug/mL [7] was 91.2% and the “log(activity)” value (Staphylococcus aureus [8]) was over 3. For the same compound, the “log(activity)” value (Escherichia coli [9]) was over 3, the viability at 24 h, 12.5 ug/mL [10] was 89.3% and the “log(activity)” value (Staphylococcus aureus [11]) was 6.3. For the same compound, the MIC (Staphylococcus aureus [12]) was 0.78 µg/mL, the Activity (Cell membrane) was “Active” and the viability at 24 h, 3.125 ug/mL [13] was 99.5%. For the same compound, the MIC (Staphylococcus aureus [14]) was 0.78 µg/mL, the MIC (Candida albicans [15]) was 1.56 µg/mL and the viability at 24 h, 25 ug/mL [16] was 77.9%. For the same compound, the MIC (Candida albicans [17]) was 1.56 µg/mL and the viability at 24 h, 50 ug/mL [18] was 31.3%.
For `CCCCCCCCCN1CCCc2cc(OCCCCNC(=N)N)ccc21`, the “log(activity)” value (Pseudomonas aeruginosa) was 3.2, the MIC (Escherichia coli [1]) was 1.56 µg/mL and the inhibition at 3.125 µg/mL (Escherichia coli [2]) was 96.2%. It also gave an MIC (Candida albicans [3]) of 0.78 µg/mL, an MIC (Staphylococcus aureus [5]) of 0.78 µg/mL and an MIC (Candida albicans [6]) of 0.78 µg/mL. The viability at 24 h, 6.25 ug/mL [7] was 92.1%, the “log(activity)” value (Staphylococcus aureus [8]) was over 3 and the Activity (Candida albicans [19]) was “Active”. For the same compound, the “log(activity)” value (Escherichia coli [9]) was over 3, the Activity (Candida albicans [20]) was “Active” and the viability at 24 h, 12.5 ug/mL [10] was 89.4%. For the same compound, the “log(activity)” value (Staphylococcus aureus [11]) was 6.6, the MIC (Staphylococcus aureus [12]) was 0.78 µg/mL and the Activity (Cell membrane) was “Active”. For the same compound, the viability at 24 h, 3.125 ug/mL [13] was 98.3%, the MIC (Staphylococcus aureus [14]) was 0.78 µg/mL and the MIC (Candida albicans [15]) was 1.56 µg/mL. For the same compound, the viability at 24 h, 25 ug/mL [16] was 72.9%, the MIC (Candida albicans [17]) was 1.56 µg/mL and the viability at 24 h, 50 ug/mL [18] was 42.5%.
